These results are taken from patent US4801600A, “Aminomethyl oxooxazolidinyl cycloalkylbenzene derivatives useful as antibacterial agents” (E. I. Du Pont de Nemours and Company, priority 1987, dated 1989).

Assay [1] has as its system Staphylococcus aureus. The assay is described as follows: In vitro broth microdilution MIC, Staphylococcus aureus. The format is cell-based. The following applies: 24-hour MIC, Mueller-Hinton broth, read-out: Minimum Inhibitory Concentration, Staphylococcus aureus. The text has this: (§1) A standard microdilution method (National Committee for Clinical Standards. Tentative standard M7-T. Standard methods for dilution antimicrobial susceptibility tests for bacteria that grow aerobically. National Committee for Clinical Laboratory Standards, Villanova, PA. 1982) with Mueller-Hinton broth is used to determine the 24-hour minimal inhibitory concentrations (MIC's) for test strains of Staphylococcus aureus and Escherichia coli.
(In general: Dilution methods test growth across graded concentrations, often in twofold steps.)

The subject of another assay is Escherichia coli. As to the kind of experiment: In vitro broth microdilution MIC, Escherichia coli. Type of assay: cell-based. The note with it: 24-hour MIC, Mueller-Hinton broth, read-out: Minimum Inhibitory Concentration, Escherichia coli.
From the text: as §1

Assay [2] concerns Staphylococcus aureus. The assay is described as follows: Acute lethal mouse model, intraperitoneal Staphylococcus aureus infection. The format is in vivo. The following applies: 168 h, mice dosed 1 h and 4 h post-infection. The method, then: Determinations of in vivo efficacy are performed by inoculating mice intraperitoneally with cultures of the infecting organism diluted to produce 100% of mortality in control animals within twenty-four hours. The culture of S. aureus used to infect the animals was diluted to the required bacterial density using 5% aqueous hog gastric mucin. The compounds are dissolved or suspended in 0.25% aqueous Methocal® (Methocel®: Hydroxypropyl Methylcellulose, E15 Premium, Dow Chemical Company) for oral administration or sterile distilled water containing 5% dimethylsulfoxide (Fisher Scientific Company, Fairlawn, N.J.) for subcutaneous administration. The mice are dosed at one hour and at four hours post-infection. Mortality is recorded daily until test termination seven days post infection. The number of survivors in each treatment group on the seventh day after infection is used in the calculation of the ED50, the dose of compound that protects 50% of the mice (Litchfield, J. T. and Wildoxon. A simplified method for evaluating dose-effect experiments. J. Pharmacol Exp. Ther., 96:99-113, 1949 ).

Where [3] appears, read: oral, survival at day 7, read-out: ED50, Oral Administration.
The mark [4] stands for this setting: sc, subcutaneous, survival at day 7, read-out: ED50, Subcutaneous Administration.

Converted amounts (≈) assume the structure as drawn. Where two headings read alike, the source gives them in different places.

For the molecule `CC(=O)NCC1CN(c2ccc3c(c2)CCC3)C(=O)O1` (single isomer, unassigned) [Example 1F, (l)-N-[3-(2,3-Dihydro-1H-inden-5-yl)-2-oxooxazolidin-5-ylmethyl]acetamide], the MIC in the assay on Staphylococcus aureus [1] is 2 µg/mL (≈ 7.29 µM); in the assay on Escherichia coli it was above 128 µg/mL. Also, the ED50 was found to be 2.2 mg/kg with Staphylococcus aureus [2] (setting [3]) and 1.7 mg/kg in the assay on Staphylococcus aureus [2] (setting [4]).
With `CC(=O)NCC1CN(c2ccc3c(c2)CCC3=NN2CCN(C)CC2)C(=O)O1` (single isomer, unassigned) [Example 18, (l)-N-[3-[1,2-Dihydro-1-(4-methyl-1-piperazinylimino)-1H-inden-5-yl]-2-oxooxazolidin-5-ylmethyl]acetamide], the MIC with Staphylococcus aureus [1] is 8 to 16 µg/mL (≈ 20.8 to 41.5 µM); with Escherichia coli it was above 128 µg/mL. For the same molecule, the ED50 in the assay with Staphylococcus aureus [2] (setting [3]) came to 13.9 mg/kg; with Staphylococcus aureus [2] (setting [4]) it was 20.3 mg/kg.
In the same order, the values of `CC(=O)NCC1CN(c2ccc3c(c2)CCC3O)C(=O)O1` (single isomer, unassigned) [Example 17, (l)-N-[3-(2,3-Dihydro-1-hydroxy-1H-inden-5-yl)-2-oxooxazolidin-5-ylmethyl]acetamide] are 8 µg/mL (≈ 27.6 µM), above 128 µg/mL, 1.9 mg/kg and 1.8 mg/kg.
In the same order, the values of `CC(=O)NCC1CN(c2ccc3c(c2)CCC3=O)C(=O)O1` (single isomer, unassigned) [Example 16, (l)-N-[3-(2,3-Dihydro-1-oxo-1H-inden-5-yl)-2-oxooxazolidin-5-ylmethyl]acetamide] are 2 to 4 µg/mL (≈ 6.94 to 13.9 µM), above 128 µg/mL, 1.6 mg/kg and 1.2 mg/kg.
